# How the values were obtained:
# PKC (rat brain) = test: Protein Kinase C inhibition assay (PKC); assay type: biochemical; settings: 10 μM compound
# Description: The ERK2 kinase activity assay utilizes a radioactivity-based format in a 96-well PCR plate with radioactive readout. The ERK2 activity was assayed in a 25 μL assay mixture containing 25 mM HEPES (pH 7.0), 250 μM ATP, 1 mM MgCl2, 1 mM DTT, 2% DMSO, 150 ng/mL Myelin Basic Protein (MBP, Sigma M-1891), and 13.6 ng/mL His tagged ERK2 (specific activity=38.1 nmol/min*mg). Compounds were screened for inhibition of the ERK2 kinase activity at a concentration of 10 μM. The kinase reaction was allowed to proceed at 37° C. for 30 minutes, then reaction was stopped by the addition of 5 μl of 0.5M EDTA (pH 8). 15 μL of each solution were then spotted onto the corresponding square of a filtermat (8×12 glassfibre mat 90×120 mm, PE-Wallac 1450-421). The filtermat was allowed to dry and washed once with 10% TCA, 2% PPA, 500 mM NaCl each for 30 minutes at rt. Two further washings in 10% TCA and 2% PPA for 30 minutes were performed, then a final 30 minute wash in 99% EtOH at rt was done and the filtermat was air dried. The dry filtermat was then placed in a sample bag with a Meltilex sheet (Melt-on scintillator sheets 73×109 mm, PE-Wallac 1450-441 for filtermat A) over the filtermat. The bag was trimmed to fit into the microplate heatsealer (PE-Wallac 1495-021). The heatsealer is used to melt the Meltilex on the filtermat. The bag containing the filtermat and the melted Meltilex was then placed into a filter cassette and counted using the Microbeta Jet Scintillation and Luminescence Counter PE-Wallac 1450.
# The PKC kinase activity assay utilizes a radioactivity-based format in a 96-well PCR plate with radioactive readout. The PKC activity was assayed in a 25 μL assay mixture containing 25 mM HEPES (pH 7.0), 250 μM ATP, 10 mM MgCl2, 1 mM DTT, 1 mM EDTA (pH 8), 2 mM CaCl2, 2% DMSO, 250 ng/mL Histone H1 (Roche 1 004 875), and 165 ng/mL PKC (rat brain, Calbiochem 539494, specific activity=1600 nmol/min*mg). Compounds were screened for inhibition of the PKC kinase activity at a concentration of 10 μM. The kinase reaction was allowed to proceed at 37° C. for 30 minutes, then the reaction was stopped by addition of 5 μL of 0.5M EDTA (pH 8). The remainder of the protocol is identical to the one reported for ERK2.
# GSK3β = molecular target: T1, GSK3β (Homo sapiens, UniProt P49841); test: Glycogen Synthase Kinase 3β inhibition assay (GSK3β); assay type: biochemical; settings: 10 μM compound
# T1 construct: purchased Upstate Discovery
# T1 sequence (P49841 whole entry, species assumed): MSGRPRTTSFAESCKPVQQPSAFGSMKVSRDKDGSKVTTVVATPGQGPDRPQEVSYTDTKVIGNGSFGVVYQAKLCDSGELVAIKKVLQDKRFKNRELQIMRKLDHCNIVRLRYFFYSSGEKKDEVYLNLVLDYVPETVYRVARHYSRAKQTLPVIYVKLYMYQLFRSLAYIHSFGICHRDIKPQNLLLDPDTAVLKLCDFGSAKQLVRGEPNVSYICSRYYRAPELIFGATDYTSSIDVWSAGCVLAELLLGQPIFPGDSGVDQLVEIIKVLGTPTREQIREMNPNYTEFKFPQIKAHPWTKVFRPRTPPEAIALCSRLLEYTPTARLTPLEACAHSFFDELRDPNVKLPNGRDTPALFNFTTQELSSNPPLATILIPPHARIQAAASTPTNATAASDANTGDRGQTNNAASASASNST
# Description: The GSK3β kinase activity assay utilizes a radioactivity-based format in a 96-well PCR plate with radioactive readout. The GSK3 β activity was assayed in a 25 μL assay mixture containing 8 mM HEPES (pH 7.0), 250 μM ATP, 0.2 mM EDTA (pH 8), 2% DMSO, 250 ng/mL Myelin Basic Protein (MBP, Sigma M-1891), and 12 ng/mL GSK3β (Upstate Discovery, specific activity=607 nmol/min*GS2 peptide, concentration of 6.05 mg/mL). Compounds were screened for inhibition of the GSK3β kinase activity at a concentration of 10 μM. The kinase reaction was allowed to proceed at 37° C. for 30 minutes, then the reaction was stopped by addition of 5 μL of 0.5M EDTA (pH 8).
# [1] = Determination of brain/plasma ratios for K252a and NAD002 for comparison with NAD0241 (Example 56F); assay type: in vivo, Wistar Han Rats; settings: rats, 1 hour post-administration
# Description: Application of Compound: 5 mg/kg of NAD 241 and NAD0180 each in a vehicle of 1.5 mL/kg PEG 400 Macrogol Ph. Eur. were applied i.v. through the femoral vein to two groups (n=3) of Wistar Han Rats weighing between 240-270 g. The application was performed under anaesthesia, initiated with 3.5% Isofluorane/O2, then maintained at 1% during compound application and suture of the vein. 200 μL of local anaesthetic lidocaine were locally administered. 1 hour after application of the compound 200 μl of blood were obtained by tail vein incision. Immediately following the blood sampling rats were terminated by decapitation after brief CO2 anaesthesia Brains were resected and weighed. Plasma was obtained by centrifugation of the tail vein blood at 13000 g for 20 minutes at 4° C. Prior art compounds […] and NAD002 and were assessed using identical conditions of application as used in example 56E to provide a direct comparison with NAD0241 for the ability to penetrate the blood-brain barrier. Volumes of injection for all compounds (including NAD0241) was fixed at 2.3 mL/kg, in average about 500-600 μL per animal. The other parameters were left unchanged. Sampling of body fluids and brain tissue was performed as described in example 56E. Extraction of compounds from brain and plasma was performed as described in example 56E but no concentrated ammonia solution was added prior to extraction of […] and NAD002. HPLC analysis of […] was performed on a 5 μm Merck RP 18 Select B 12.5×4.6 mm column at a flow rate of 0.75 mL/min with isocratic elution by acetonitrile/water 60/40 (v/v). Fluorescent excitation/emission was at 284 nm/476 nm. NAD002 was analyzed on a C 18 shield symmetry 25×4.6 mm (Waters and Owen) at 40° C. using excitation/emission wavelengths of 315/565 nm. Quantitations were performed as under example 56E.
smiles,measurement,setting,value
NC(=O)[C@]1(N)CC2CC1n1c3ccccc3c3c4c(c5c6ccccc6n2c5c31)C(=O)NC4=O (mixture of isomers) [Compound 5],% Inhibition PKC,PKC (rat brain),91.62%
same,inhibition at 10 µM,GSK3β,100%
same,Kp at 1 h,"[1]; Wistar Han, rat, brain and plasma, iv, 5 mg/kg, 5 mg/kg i.v., 2.3 mL/kg PEG 400, read-out: brain/plasma ratio",~1
same,brain concentration compared with NAD002,[1],Significantly higher
same,improvement of brain/plasma ratio over K252a,[1],about two-fold
same,improvement of brain/plasma ratio over NAD002,[1],several-fold
same,plasma levels compared with NAD002 and K252a,[1],Lower

# From US20070149481A1, “N,n-bridged, nitrogen-substituted carbacyclic indolocarbazoles as protein kinase inhibitors” (priority 2002, published 2007)
